Laboratory results published in patent US10434128B2, “Composition comprising Ulmi cortex extracts for inhibiting ovotoxicity” (DONGGUK UNIVERSITY GYEONGJU CAMPUS INDUSTRY-ACADEMY …, priority 2017, dated 2019).

Experiments:
[1] = test system: PARP and caspase-3; assay: Western blot of apoptosis proteins in CHO-K1 cells with VCD-induced ovotoxicity; format: cell-based, Chinese hamster; conditions: 1.5 mM VCD; compared to a control
Experimental: As confirmed in Example 4, when CHO-K1 cells were treated with VCD, apoptosis occurred. To examine an effect of pretreatment with the Ulmi cortex extract (300 μg/ml), proteins associated with apoptosis, i.e., poly(ADP-ribosyl) polymerase (PARP) and caspase-3, were identified through western blot analysis.
As described in Example 5-1, a protein sample was collected from CHO-K1 cells pretreated with 300 μg/ml of the Ulmi cortex extract for […] and treated with 1.5 mM VCD. For this, the cells treated with VCD were washed three times with PBS, RIPA buffer was added thereto, and the resulting cells were allowed to react at 4° C. for 30 minutes and then centrifuged at 12,000 rpm for 30 minutes to collect a supernatant, and proteins were extracted therefrom. Subsequently, the same amount of the proteins were separated on a sodium dodecyl sulfate-polyacrylamide gel electrophoresis (SDS-PAGE), and then transferred to a PVDF membrane. To block non-specific binding, the membrane was treated with a blocking buffer (5% skim milk) for 1 hour, and washed with a PBST solution containing 0.1% Tween 20. Thereafter, the membrane was allowed to react with primary antibodies against PARP and caspase-3 at 4° C. overnight. […]

[2] = test system: CHO-K1 cells; assay: Cell morphology observation, VCD-induced cell damage; format: cell-based, Chinese hamster; conditions: 1.5 mM VCD, 24 hours
Experimental: Through cell morphological changes, it was confirmed whether the Ulmi cortex extract protected CHO-K1 cells from cell damage induced by VCD.
First, cells were distributed into a 96-well plate at a density of 1×10^4 cells/well, and the cells were cultured until the next day, followed by serum starvation for 4 hours. Subsequently, the cells were pre-treated with 300 μg/ml of the Ulmi cortex extract for 4 hours and treated with 1.5 mM VCD, and then incubated at 37° C. under 5% CO2 for 24 hours, and the cells were observed using an optical microscope (Nikon, Japan).

[3] = test system: B6C3F1 female mice; assay: VCD-induced premature ovarian failure animal model; conditions: VCD 160 mg/kg/day i.p. five times a week, 2 weeks
Experimental: B6C3F1 female mice at the age of 3 weeks (10 g to 12 g) from the same date of birth (DOB) as an experimental animal were purchased from the Central Lab Animal Inc., were adapted to a laboratory environment while sufficiently fed feed and water, and then used in an experiment. The laboratory environment was maintained at a temperature of 22±2° C. and a 12-hour day/12-hour night cycle was maintained until the experiment was completed. […]
Body weight changes were observed every week, based on the body weight measured on the start day of the experiment (day 1). […] One ovary was removed and the ovarian weight was measured and an ovarian weight index was calculated as a ratio of the measured ovarian weight with respect to the body weight immediately before sacrifice.

Q: `C1CC2OC2CC1C1CO1` (centres unmarked) [VCD, 4-vinylcyclohexene diepoxide] was tested. Which “proform band of PARP, treated only with VCD” value [1] did it give?
A: The value was “decreased”.

Q: And the “proform band of caspase-3, treated only with VCD” value [1]?
A: Its value is “became pale”.

Q: And the “cell morphology, group treated only with VCD” value [2]?
A: Its value is “apoptosis was observed”.

Q: What about the “ovarian weight index, negative control (VCD) vs normal group” value [3] of the same compound?
A: Its value is “significant decrease compared to the normal group”.

Q: What about the “sizes of the ovary and the uterus, negative control (VCD)” value [3] of the same compound?
A: The value was “significantly decreased”.
